From patent publication US6358491B1, “Somatostatin analogs” (Berlex Laboratories, Inc., priority 1999, dated 2002)
Like-named read-outs stand apart in the source and are kept apart here. Where a SMILES comes first, the peptide text is derived from it. [ ]: non-standard residue; d: D form. ξ: configuration not given here. NMehCys = CN[C@@H](CCS)C(=O)O; Thr(3ξ) = CC(O)[C@H](N)C(=O)O

How the values were obtained:
SSTRs, NCI-H69 membranes = assay: [125I]SST-14 binding to NCI-H69 cell membranes (SSTR affinity); design: species or system human; conditions: inhibition of [125I]SST-14 binding, two-site fit
Procedure: [^125I-Tyr^11] somatostatin-14 ([^125I]SST-14) was obtained from Amersham. Unlabeled somatostatin-14 was purchased either from BACHEM (Torrance, Calif.) or from Sigma Chemical Co. (St. Louis, Mo.). Protease inhibitors, leupeptin, aprotinin, bacitracin, and benzamidine and other reagents were obtained from Sigma. Protease inhibitors were prepared in dimethylsulfoxide (DMSO) at a concentration 500×higher than the final assay concentration. The prepared protease solution was stored at −20° C. and diluted with the buffer solution before use.
Membrane preparations used in these studies were prepared from two commercially available tumor cell lines, the human small cell lung cancer cell line, NCI-H69, and the rat pancreatic tumor cell line, AR42J, obtained from American Type Culture Collection (ATCC) (Manassas, Va.). NCI-H69 cells were maintained by serial passage in RPMI 1640 with 10% fetal calf serum. AR42J cells were maintained in F-12K medium containing 20% fetal calf serum. Cells in culture flasks were incubated at 37° C. with 5% CO2 in air atmosphere following the recommendations of the “Product Sheet” from ATCC.
Cultured cells were first detached from plates with phosphate-buffered saline, pH 7.4, containing 2 mM EDTA, and centrifuged at 1,500×g for 10 min. Cells were then resuspended in 5-10 mL of the homogenization buffer (1 mM sodium bicarbonate, pH 7.4, 1 mM EDTA, 1 mM EGTA, 2.5 mM DTT, 5 μg/mL leupeptin, 5 μg/mL aprotinin, 100 μg/mL bacitracin, 100 μg/mL benzamidine) for 10 min on ice. The cells were lysed for 30 sec twice in a polytron with a setting at 5. The lysate was centrifuged at 1,000×g for 10 min at 4° C. The supernatant was centrifuged at 40,000×g for 20 min at 4° C. This step was repeated twice with the homogenization buffer in the absence of protease inhibitors. The pellet was then resuspended at 1-5 mg membrane protein/mL in 25 mM Tris, pH 7.4 without the addition of protease inhibitors and the membranes were stored at −80° C. before use. Membrane protein concentration was determined spectroscopically using the bicinchonic acid (BCA) protein assay kit (Pierce Chemical Inc. (Rockford, Ill.).
All [^125I]SST-14 binding assays were performed in 0.5 mL binding buffer containing 50 mM HEPES, pH 7.5, 10 mM MgCl2, 0.25% BSA (w/v) containing protease inhibitors (same as above) and incubated at 37° C. for 45 minutes. After incubation, samples were kept at 4° C. and rapidly filtered under vacuum through a Whatman GF/B glass fiber filter with a 12-well harvester (Skatron Instruments Inc., Sterling, Va.). The filter was washed for 9 seconds with cold 50 mM HEPES, pH 7.5, 10 mM MgCl2, 0.25% BSA (w/v). Thirty-five […] of [^125I]SST-14 from Amersham was used in each tube. Peptides were solubilized in DMSO and serially diluted with DMSO. Five μL of peptide in DMSO was used to obtain the final concentration. DMSO (5 μL) was added to the tube without the addition of any peptide or unlabeled SST-14, so that each tube contained 1% DMSO. Non-specific binding was defined as the binding of [^125I]SST-14 which was not displaceable with an excess of unlabeled SST-14 at a concentration of 1×10^−6 M. The bound [^125I]SST-14 without or with excess unlabeled SST-14 (1×10^−6 M) was defined as total binding and nonspecific binding, respectively. The difference between total and nonspecific binding was defined as specific binding. The percent inhibition (% Inh) by peptide was expressed as
% Inh=(total binding−total binding in the presence of peptide)/specific binding×100%
Inclusion of protease inhibitors in homogenizing medium as well as assay buffer is essential to maintain the integrity of both [^125I]SST-14 and somatostatin analogs for the receptor binding assay and to obtain optimal specific binding. The highest specific binding was observed when MgCl2 (10 mM) was included. Membranes were finally resuspended in a sodium-free medium and receptor binding assays were performed in the absence of sodium ions. […]

AR42J tumor xenografts = assay: Biodistribution of 99mTc-labeled compounds in nude mice with AR42J tumor xenografts; assay type: in vivo; conditions: 99mTc-labeled compound, 90 minutes post-injection; for TUMOR: i.v.; for T:B: tumor to blood ratio; for T:M: tumor to muscle ratio
Procedure: Rat pancreatic AR42J cells (ATCC, Rockville, Md., USA) were grown in Modified Ham's F12K medium (Cat. No. N-3520, Sigma, St. Louis, Mo., USA) containing 20% fetal bovine serum (FCS) (Cat. No. 1224, Lot No. 9702058, Sigma, St. Louis, Mo., USA) under sterile conditions in 95% humidity and 5% CO2. At a density of approximately 10×10^6 cells per T150 flask, the cells were harvested with trypsin and collected by centrifugation at 2400 rpm (800×g) for 15 minutes in a benchtop centrifuge (IEC Centra-8 tabletop centrifuge, International Equipment Company, Needham, Mass., USA). The cells were resuspended in medium containing 20% FCS for implantation.
Six female nude mice (CrlLNU/NU-nuBR, 6-8 weeks old) were injected subcutaneously into the right flank with tumor cells (2×10^7/100 μL) in 20% matrigel (Collaborative Biomedical Products, Chicago, Ill., USA). Fourteen days after inoculation tumors were visible in all animals. Three weeks after inoculation, tumors were aseptically dissected, minced and implanted into 60 nude mice using a trochar. The tumor xenografts from the second passage were used for biodistribution studies.
A dose of approximately 50-100 μCi ^99mTc-labeled compound/mouse was injected intravenously in a total volume of 100 μL. Mice were sacrificed 90 minutes post-injection by decapitation and the trunk blood was collected. Tumors (1 to 3 per mouse), liver, gastrointestinal tract, kidneys, and samples of muscle from both legs (quadriceps femoralis) were collected, weighed, and counted for radioactivity.

[1] = read-out: IC50 Values for Uncomplexed Compounds, NCI-H69 (first value)
[2] = read-out: IC50 Values for Uncomplexed Compounds, NCI-H69 (second value)

SMILES	IC50 (SSTRs, NCI-H69 membranes; [1]) [nM]	IC50 (SSTRs, NCI-H69 membranes; [2]) [nM]	TUMOR (AR42J tumor xenografts) [%ID/g]	T:B (AR42J tumor xenografts)	T:M (AR42J tumor xenografts)
C[C@@H](O)[C@@H]1NC(=O)[C@H](CCCCN)NC(=O)[C@@H](Cc2c[nH]c3ccccc23)NC(=O)[C@H](Cc2ccc(O)cc2)NC(=O)[C@H](CCSCC(=O)NC[C@H](N)C(=O)N[C@@H](CN)C(=O)N[C@@H](CS)C(=O)N[C@H](CO)[C@@H](C)O)N(C)C(=O)[C@H](Cc2ccccc2)NC1=O [cyclo-Tyr-D-Trp-Les-Thr-Phe-(N—CH3)Hcy(CH2 CO-β-Dap-Dap-Cys-Thr(ol))]	0.449	46.8	–	–	–
C[C@@H](O)[C@@H]1NC(=O)[C@H](CCCCN)NC(=O)[C@@H](Cc2c[nH]c3ccccc23)NC(=O)[C@H](Cc2ccc(O)cc2)NC(=O)[C@H](CCSCC(=O)N[C@@H](CO)C(=O)N[C@@H](CO)C(=O)N[C@@H](CS)C(=O)NCCOCCOCCN)N(C)C(=O)[C@H](Cc2ccccc2)NC1=O [cyclo-Tyr-D-Trp-Lys-Thr-Phe-(N—CH3)Hcy(CH2 CO-Ser-Ser-Cys-NH(CH2 CH2 O)2 CH2 CH2 NH2)]	0.645	> 1000	10.6	44	132
C[C@@H](O)[C@H](NC(=O)CSCC[C@H]1C(=O)N[C@@H](Cc2ccc(O)cc2)C(=O)N[C@H](Cc2c[nH]c3ccccc23)C(=O)N[C@@H](CCCCN)C(=O)N[C@@H]([C@@H](C)O)C(=O)N[C@@H](Cc2ccccc2)C(=O)N1C)C(=O)NCC(=O)NCC(=O)N[C@@H](CS)C(N)=O [cyclo-Tyr-D-Trp-Lys-Thr-Phe-(N—CH3)Hcy(CH2 CO-Thr-Gly-Gly-Cys-NH2)]	1.63	24300	3.81	30	95
C[C@@H](O)[C@@H]1NC(=O)[C@H](CCCCN)NC(=O)[C@@H](Cc2c[nH]c3ccccc23)NC(=O)[C@H](Cc2ccc(O)cc2)NC(=O)[C@H](CCSCC(=O)NC[C@H](N)C(=O)N[C@@H](CCCNC(=N)N)C(=O)N[C@@H](CS)C(=O)N[C@H](CO)[C@@H](C)O)N(C)C(=O)[C@H](Cc2ccccc2)NC1=O [cyclo-Tyr-D-Trp-Lys-Thr-Phe-(N—CH3)Hcy(CH2 CO-β-Dap-Arg-Cys-Thr(ol))]	0.413	< 0.001	–	–	–
C[C@@H](O)[C@@H]1NC(=O)[C@H](CCCCN)NC(=O)[C@@H](Cc2c[nH]c3ccccc23)NC(=O)[C@H](Cc2ccc(O)cc2)NC(=O)[C@H](CCSCC(=O)NC[C@H](N)C(=O)N[C@@H](CCN)C(=O)N[C@@H](CS)C(=O)N[C@H](CO)[C@@H](C)O)N(C)C(=O)[C@H](Cc2ccccc2)NC1=O [cyclo-Tyr-D-Trp-Lys-Thr-Phe-(N—CH3)Hcy(CH2 CO-β-Dap-Dab-Cys-Thr(ol))]	0.642	> 1000	–	–	–
C[C@@H](O)[C@H](NC(=O)[C@H](CS)NC(=O)[C@H](CCN)NC(=O)[C@@H](N)CNC(=O)CSCC[C@H]1C(=O)N[C@@H](Cc2ccc(O)cc2)C(=O)N[C@H](Cc2c[nH]c3ccccc23)C(=O)N[C@@H](CCCCN)C(=O)N[C@@H]([C@@H](C)O)C(=O)N[C@@H](Cc2ccccc2)C(=O)N1C)C(=O)O [cyclo-Tyr-D-Trp-Lys-Thr-Phe-(N—CH3)Hcy(CH2 CO-β-Dap-Dab-Cys-Thr)]	1.25	1.25	–	–	–
C[C@@H](O)[C@@H]1NC(=O)[C@H](CCCCN)NC(=O)[C@@H](Cc2c[nH]c3ccccc23)NC(=O)[C@H](Cc2ccc(O)cc2)NC(=O)[C@H](CCSCC(=O)NC[C@H](N)C(=O)N[C@@H](Cc2c[nH]cn2)C(=O)N[C@@H](CS)C(=O)N[C@H](CO)[C@@H](C)O)N(C)C(=O)[C@H](Cc2ccccc2)NC1=O [cyclo-Tyr-D-Trp-Lys-Thr-Phe-(N—CH3)Hcy(CH2 CO-β-Dap-His-Cys-Thr(ol))]	0.861	–	15.5	29	96

Continued, values first:

IC50 (SSTRs, NCI-H69 membranes; [1]) [nM]	IC50 (SSTRs, NCI-H69 membranes; [2]) [nM]	TUMOR (AR42J tumor xenografts) [%ID/g]	T:B (AR42J tumor xenografts)	T:M (AR42J tumor xenografts)	SMILES
0.641	0.641	–	–	–	C[C@@H](O)[C@H](NC(=O)[C@H](CS)NC(=O)[C@H](Cc1ccc(N)cc1)NC(=O)[C@@H](N)CNC(=O)CSCC[C@H]1C(=O)N[C@@H](Cc2ccc(O)cc2)C(=O)N[C@H](Cc2c[nH]c3ccccc23)C(=O)N[C@@H](CCCCN)C(=O)N[C@@H]([C@@H](C)O)C(=O)N[C@@H](Cc2ccccc2)C(=O)N1C)C(=O)O [cyclo-Tyr-D-Trp-Lys-Thr-Phe-(N—CH3)Hcy(CH2 CO-β-Dap-Phe(4-NH2)-Cys-Thr)]
–	–	1.8	29	95	C[C@@H](O)[C@@H]1NC(=O)[C@H](CCCCN)NC(=O)[C@@H](Cc2c[nH]c3ccccc23)NC(=O)[C@H](Cc2ccc(O)cc2)NC(=O)[C@H](CCSCC(=O)NCCC[C@H](N)C(=O)NCC(=O)N[C@@H](CS)C(N)=O)N(C)C(=O)[C@H](Cc2ccccc2)NC1=O [cyclo-Tyr-D-Trp-Lys-Thr-Phe-(N—CH3)Hcy(CH2 CO-δ-Orn-Gly-Cys-NH2)]
0.21	–	–	–	–	CC(O)[C@@H]1NC(=O)[C@H](CCCCN)NC(=O)[C@@H](Cc2c[nH]c3ccccc23)NC(=O)[C@H](Cc2ccc(O)cc2)NC(=O)[C@H](CCS)N(C)C(=O)[C@H](Cc2ccccc2)NC1=O (stereo partly drawn) [cyclo-YWDKTF.(N—CH3).Hcy., cyclo-Tyr-D-Trp-Lys-Thr-Phe-(N—CH3)Hcy] (cyclo(F[NMehCys]Y[dW]K[Thr(3ξ)]))
0.388	0.388	–	–	–	C[C@@H](O)[C@H](NC(=O)[C@H](CS)NC(=O)[C@H](Cc1ccc(N)cc1)NC(=O)[C@@H](N)CNC(=O)CSCC[C@H]1C(=O)N[C@@H](Cc2ccc(O)cc2)C(=O)N[C@H](Cc2c[nH]c3ccccc23)C(=O)N[C@@H](CCCCN)C(=O)N[C@@H]([C@@H](C)O)C(=O)N[C@@H](Cc2ccccc2)C(=O)N1C)C(=O)NC(CO)CO [cyclo-YWDKTF.(N—CH3)Hcy(CH2CO.β-Dap.F(4-NH2).CT.S(ol))]
0.21	–	–	–	–	CC(C)[C@@H]1NC(=O)[C@H](CCCCN)NC(=O)[C@@H](Cc2c[nH]c3ccccc23)NC(=O)[C@H](Cc2ccc(O)cc2)NC(=O)[C@H](CCS)N(C)C(=O)[C@H](Cc2ccccc2)NC1=O [cyclo-YWDKVF.(N—CH3).Hcy.] (cyclo(Y[dW]KVF[NMehCys]))
